Laboratory results from patent US20140242093A1, “METHODS AND COMPOSITIONS FOR MODULATING THE INNATE IMMUNE RESPONSE AND/OR MYOGENESIS IN A MAMMALIAN SUBJECT” (FRED HUTCHINSON CANCER RESEARCH CENTER, priority 2011, published 2014).

System: control human primary myoblasts
Assay: Expression microarray of primary myoblasts transduced with lentivirus carrying DUX4-fl, DUX4-s or GFP
Protocol: Primary human myoblasts were collected and cultured as previously described (Snider et al., 2010). Primary myoblasts were maintained at or below 70% confluency for proliferation. For differentiation, cells were allowed to reach 95-100% confluency in growth medium. Once confluency was reached, the cells were changed to differentiation medium (F10 media supplemented with 1% horse serum, 10 μg/mL insulin, and 10 μg/mL transferrin, penicillin/streptomycin) and maintained for 4 days. Human RD cells were grown in DMEM in 10% bovine calf serum (Hyclone) and penicillin/streptomycin. The primary myoblasts were transduced with lentivirus carrying DUX-fl, DUX4- or GFP (MOI=15).
Expression microarrays were performed on the transduced cells at 24 hours after transduction as follows. […] Samples were analyzed by Illumina Human Whole Genome microarrays. Probe intensities were corrected, normalized, and summarized by the Lumi package of Bioconductor (Du et al., 2008). Differentially expressed genes were identified by the LIMMA package of Bioconductor (Wettenhall and Smyth, 2004). Gene set enrichment analysis (GSEA) was performed using the Bioconductor GOstats package (Falcon and Gentleman, 2007).

DUX4-fl: full-length DUX4 protein (SEQ ID NO:110), expressed from lentiviral or pCS2 vectors or in vitro translated
fc of DENND5A (expression array) (Refseq NM_015213.2): −1.037
fc of FEM1B (expression array) (Refseq NM_015322.3): −0.5708
fc of PANX1 (expression array) (Refseq NM_015368.3): −0.114
fc of AASDHPPT (expression array) (Refseq NM_015423.2): −0.238
MTHFD1L fc (Refseq NM_015440.3): −1.173
C2orf32 fc (Refseq NM_015463.1): −1.1
PVRL3 expression fc (Refseq NM_015480.1): 2.223
NGDN expression fc (Refseq NM_015514.1): 2.058
fc of RRM2B (expression array) (Refseq NM_015713.3): −1.01
MBD2 expression fc (Refseq NM_015832.3): 1.818
fc of MBTPS2 (expression array) (Refseq NM_015884.1): −0.6539
ARS2 expression fc (Refseq NM_015908.4): 2.602
GSTK1 fc (Refseq NM_015917.1): −1.079
NOP58 expression fc (Refseq NM_015934.3): 1.887
CRLF3 expression fc (Refseq NM_015986.2): 1.912
fc of TTC15 (expression array) (Refseq NM_016030.5): −1.015
ISOC1 expression fc (Refseq NM_016048.1): 2.003
MED31 expression fc (Refseq NM_016060.2): 2.055
fc of TRPV2 (expression array) (Refseq NM_016113.3): −1.02
CERCAM fc (Refseq NM_016174.3): −1.121
DBR1 expression fc (Refseq NM_016216.2): 3.379
POLR3K expression fc (Refseq NM_016310.2): 1.95
HERC5 expression fc (Refseq NM_016323.2, cultured human skeletal muscle): −3.202
fc of CENPF (expression array) (Refseq NM_016343.3): −0.4122
CWC15 expression fc (Refseq NM_016403.3): 2.643
fc of TMEM9 (expression array) (Refseq NM_016456.2): −1.008
RAB6B expression fc (Refseq NM_016577.3): 3.17
SLC15A3 expression fc (Refseq NM_016582.1, cultured human skeletal muscle): −3.754
FKBP11 fc (Refseq NM_016594.1): −1.125
ARMCX1 fc (Refseq NM_016608.1): −1.116
C8orf55 fc (Refseq NM_016647.2): −1.082
HOXC13 fc (Refseq NM_017410.2): −1.107
USP18 expression fc (Refseq NM_017414.3, cultured human skeletal muscle): −2.497
PARP14 expression fc (Refseq NM_017554.1, cultured human skeletal muscle): −2.825
fc of SLC43A3 (expression array) (Refseq NM_017611.2): −1.026
NOTCH1 fc (Refseq NM_017617.3): −1.08
KIF21A expression fc (Refseq NM_017641.2): 1.837
fc of AHI1 (expression array) (Refseq NM_017651.3): −0.5927
SAMD9 expression fc (Refseq NM_017654.2, cultured human skeletal muscle): −2.863
FAM46C expression fc (Refseq NM_017709.3): 2.389
RETSAT expression fc (Refseq NM_017750.2, cultured human skeletal muscle): −1.929
LYAR expression fc (Refseq NM_017816.1): 1.977
ZSCAN2 expression fc (Refseq NM_017894.4): 2.151
HERC6 expression fc (Refseq NM_017912.3, cultured human skeletal muscle): −3.728
PID1 fc (Refseq NM_017933.3): −1.128
ZNHIT6 expression fc (Refseq NM_017953.2): 3.519
C14orf102 expression fc (Refseq NM_017970.2): 2.529
fc of WIPI1 (expression array) (Refseq NM_017983.4): −1.022
RNF31 fc (Refseq NM_017999.4): −1.08
FRMD4A fc (Refseq NM_018027.3): −1.164
FAM90A1 expression fc (Refseq NM_018088.3): 3.636
fc of RBM23 (expression array) (Refseq NM_018107.4): −1.022
PNPO fc (Refseq NM_018129.2): −1.13
SEC61A2 expression fc (Refseq NM_018144.2): 1.837
NADSYN1 fc (Refseq NM_018161.4): −1.086
TMEM140 expression fc (Refseq NM_018295.2, cultured human skeletal muscle): −2.946
BRIX1 expression fc (Refseq NM_018321.3): 1.886
DRAM1 fc (Refseq NM_018370.2): −1.087
LSG1 expression fc (Refseq NM_018385.1): 1.994
TBC1D2 fc (Refseq NM_018421.2): −1.075
RRN3 expression fc (Refseq NM_018427.3): 2.068
ZNF302 fc (Refseq NM_018443.2): −1.164
fc of GLT8D1 (expression array) (Refseq NM_018446.2): −1.021
BEX1 fc (Refseq NM_018476.3): −1.097
SLC35E3 fc (Refseq NM_018656.2): −1.132
DEFB103B expression fc (Refseq NM_018661.3): 2.499
fc of SULF2 (expression array) (Refseq NM_018837.2): −1.048
PDE7B fc (Refseq NM_018945.3): −1.116
NANS expression fc (Refseq NM_018946.2): 1.872
POLR1B expression fc (Refseq NM_019014.3): 1.904
CCNJ expression fc (Refseq NM_019084.2): 2.695
fc of HOXA5 (expression array) (Refseq NM_019102.2): −1.005
PNO1 expression fc (Refseq NM_020143.2): 2.151
KTELC1 fc (Refseq NM_020231.3): −1.073
C1orf63 expression fc (Refseq NM_020317.3): 2.19
ZMIZ1 fc (Refseq NM_020338.2): −1.165
TRIM49 expression fc (Refseq NM_020358.2): 6.551
LYRM1 fc (Refseq NM_020424.2): −1.126
SLC44A2 fc (Refseq NM_020428.2): −1.158
PCBP3 fc (Refseq NM_020528.1): −1.122
